*1 amine or outer side, *2 acyl side, *3 side chain or, on linkers, in order; H or OH if unused. Where a SMILES comes first, the peptide text is derived from it. Bridges are numbered along the chain shown (N, C = ends). [ ]: non-standard residue; d: D form. The star is where a group is joined. X5 = NC(=O)[C@H](CCCCNC(=O)CN1CCN(CC(=O)O)CCN(CC(=O)O)CCN(CC(=O)O)CC1)NC(=O)CCC(=O)NCCCOCCOCCOCCCN*; X3 = O=C(O)CN1CCN(CC(=O)O)CCN(CC(=O)NCCCOCCOCCOCCCN*)CCN(CC(=O)O)CC1; DOTA = O=C(O)CN1CCN(CC(=O)O)CCN(CC(=O)*)CCN(CC(=O)O)CC1; Trp(5-Cl) = N[C@@H](Cc1c[nH]c2ccc(Cl)cc12)C(=O)O; Pyridine(2,6-diCH2) = c1cc(C[*:1])nc(C[*:2])c1; Pro(4R-NH2) = N[C@H]1CN[C@H](C(=O)O)C1; mXylylene = c1cc(C[*:1])cc(C[*:2])c1; X7 = c1cc(CSCCN[*:2])cc(C[*:1])c1; Hyp = O=C(O)[C@@H]1C[C@@H](O)CN1; tBuAla = CC(C)(C)C[C@H](N)C(=O)O; NMeD = CN[C@@H](CC(=O)O)C(=O)O; Suc = O=C(CCC(=O)[*:2])[*:1]; Api = NC1(C(=O)O)CCNCC1; Thp = NC1(C(=O)O)CCOCC1; Aib = CC(C)(N)C(=O)O

This experiment deals with T1, GIPR (CHO-K1-hGIPR cells) (Homo sapiens, UniProt P48546).
T1 construct: host or cells: CHO-K1
T1 sequence (P48546 22-466): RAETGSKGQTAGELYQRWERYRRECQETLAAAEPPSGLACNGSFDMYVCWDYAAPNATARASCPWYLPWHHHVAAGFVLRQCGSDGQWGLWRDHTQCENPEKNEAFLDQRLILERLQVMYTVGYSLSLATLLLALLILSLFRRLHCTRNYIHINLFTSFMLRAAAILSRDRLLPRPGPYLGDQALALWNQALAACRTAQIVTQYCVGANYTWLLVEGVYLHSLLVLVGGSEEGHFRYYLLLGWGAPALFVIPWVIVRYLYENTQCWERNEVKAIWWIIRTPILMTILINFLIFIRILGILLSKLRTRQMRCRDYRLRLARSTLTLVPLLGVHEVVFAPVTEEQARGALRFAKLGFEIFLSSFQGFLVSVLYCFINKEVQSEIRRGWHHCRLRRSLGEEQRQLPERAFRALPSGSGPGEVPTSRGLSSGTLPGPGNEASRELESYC
Nature of the experiment: FACS binding assay. Conditions: competition with 20 nM GIP-057, 4° C., 1 hour, read-out: pIC50 Category (converted). The essentials:
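Read-out: flow cytometric median fluorescence intensity, APC/Cy5 channel, plotted vs peptide conc.; 4PL fit → EC50/pEC50 or IC50/pIC50. Cells: CHO-K1-hGIPR, Accutase-detached, 500.000/mL in PBS + 1% FCS. Detection: APC-streptavidin 1 μg/mL, 30 min, on ice.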
For the molecule `CC[C@H](C)[C@@H]1NC(=O)[C@H](CC(C)C)NC(=O)C2(CCOCC2)NC(=O)[C@@H](NC(=O)[C@@H](CC(C)C)NC(=O)[C@H](CCC(=O)O)NC(=O)[C@@H]2C[C@@H](O)CN2C(=O)[C@H](Cc2c[nH]c3ccc(Cl)cc23)NC(=O)[C@H](Cc2c[nH]c3ccccc23)NC(=O)CCC(=O)O)CSCc2cccc(n2)CSC[C@@H](C(=O)N[C@@H](CCCCNC(=O)CN2CCN(CC(=O)O)CCN(CC(=O)O)CCN(CC(=O)O)CC2)C(N)=O)NC1=O` [GIP-115, HO-Succinyl-Trp-5Clw-Hyp-Glu-leu-[Cys(2Lut)-Thp-Leu-Ile-Cys]-Lys(DOTA)-NH2] (Suc-W[Trp(5-Cl)][Hyp]E[dL]C[Thp]LICK(DOTA)-NH2; linker 6-10 via Pyridine(2,6-diCH2)), the IC50 was under 10 nM.

For `CC[C@H](C)[C@@H]1NC(=O)[C@H](CC(C)C)NC(=O)C2(CCOCC2)NC(=O)[C@@H](NC(=O)[C@@H](CC(C)C)NC(=O)[C@H](CCC(=O)O)NC(=O)[C@@H]2C[C@@H](O)CN2C(=O)[C@H](Cc2c[nH]c3ccc(Cl)cc23)NC(=O)[C@H](Cc2c[nH]c3ccccc23)NC(=O)CCC(=O)O)CSCc2cccc(n2)CSC[C@@H](C(=O)N[C@H](CCCCNC(=O)CN2CCN(CC(=O)O)CCN(CC(=O)O)CCN(CC(=O)O)CC2)C(N)=O)NC1=O` [GIP-116, HO-Succinyl-Trp-5Clw-Hyp-Glu-leu-[Cys(2Lut)-Thp-Leu-Ile-Cys]-lys(DOTA)-NH2] (Suc-W[Trp(5-Cl)][Hyp]E[dL]C[Thp]LIC[dK](DOTA)-NH2; linker 6-10 via Pyridine(2,6-diCH2)), the IC50 is under 10 nM.

With `CC[C@H](C)[C@@H]1NC(=O)[C@H](CC(C)C)NC(=O)C2(CCN(C(=O)CN3CCN(CC(=O)O)CCN(CC(=O)O)CCN(CC(=O)O)CC3)CC2)NC(=O)[C@@H](NC(=O)[C@@H](CC(C)C)NC(=O)[C@H](CCC(=O)O)NC(=O)[C@@H]2C[C@@H](O)CN2C(=O)[C@H](Cc2c[nH]c3ccc(Cl)cc23)NC(=O)[C@H](Cc2c[nH]c3ccccc23)NC(=O)[C@H](CC(=O)O)NC(C)=O)CSCc2cccc(n2)CSC[C@@H](C(N)=O)NC1=O` [GIP-122, Ac-Asp-Trp-5Clw-Hyp-Glu-leu-[Cys(2Lut)-Apc(DOTA)-Leu-Ile-Cys]-NH2] (Ac-DW[Trp(5-Cl)][Hyp]E[dL]C[Api](DOTA)LIC-NH2; linker 7-11 via Pyridine(2,6-diCH2)), the IC50 was under 10 nM.

For the molecule `CC[C@H](C)[C@@H]1NC(=O)[C@H](CC(C)C)NC(=O)C2(CCN(C(=O)CN3CCN(CC(=O)O)CCN(CC(=O)O)CCN(CC(=O)O)CC3)CC2)NC(=O)[C@@H](NC(=O)[C@@H](CC(C)C)NC(=O)[C@H](CCC(=O)O)NC(=O)[C@@H]2C[C@@H](N)CN2C(=O)[C@H](Cc2c[nH]c3ccc(Cl)cc23)NC(=O)[C@H](Cc2c[nH]c3ccccc23)NC(=O)[C@H](CC(=O)O)NC(C)=O)CSCc2cccc(n2)CSC[C@@H](C(N)=O)NC1=O` [GIP-123, Ac-Asp-Trp-5Clw-Tap-Glu-leu-[Cys(2Lut)-Apc(DOTA)-Leu-Ile-Cys]-NH2] (Ac-DW[Trp(5-Cl)][Pro(4R-NH2)]E[dL]C[Api](DOTA)LIC-NH2; linker 7-11 via Pyridine(2,6-diCH2)), the IC50 was under 10 nM.

For the molecule `CC[C@H](C)[C@@H]1NC(=O)[C@H](CC(C)C)NC(=O)C2(CCOCC2)NC(=O)[C@@H](NC(=O)[C@@H](CC(C)C)NC(=O)[C@H](CCC(=O)O)NC(=O)[C@@H]2C[C@@H](O)CN2C(=O)[C@H](Cc2c[nH]c3ccc(Cl)cc23)NC(=O)[C@H](Cc2c[nH]c3ccccc23)NC(=O)[C@H](CC(=O)O)NC(=O)CN2CCN(CC(=O)O)CCN(CC(=O)O)CCN(CC(=O)O)CC2)CSCc2cccc(n2)CSC[C@@H](C(N)=O)NC1=O` [GIP-125, DOTA-Asp-Trp-5Clw-Hyp-Glu-leu-[Cys(2Lut)-Thp-Leu-Ile-Cys]-NH2] ({DOTA}-DW[Trp(5-Cl)][Hyp]E[dL]C[Thp]LIC-NH2; linker 7-11 via Pyridine(2,6-diCH2)), the IC50 is under 10 nM.

On to `CC[C@H](C)[C@@H]1NC(=O)[C@H](CC(C)C)NC(=O)C(C)(C)NC(=O)[C@@H](NC(=O)[C@H](CC(C)C)NC(=O)[C@H](CCC(=O)O)NC(=O)[C@@H]2CCCN2C(=O)[C@H](Cc2c[nH]c3ccccc23)NC(=O)[C@H](Cc2c[nH]c3ccccc23)NC(=O)[C@H](CC(=O)O)N(C)C(=O)CCC(=O)NCCCOCCOCCOCCCNC(=O)CN2CCN(CC(=O)O)CCN(CC(=O)O)CCN(CC(=O)O)CC2)CSCc2cccc(c2)CSCCNC1=O` [GIP-130, DOTA-Ttds-Nmd-Trp-Trp-Pro-Glu-Leu-[Cys(3MeBn)-Aib-Leu-Ile-AET]] ({X3-Suc}-[NMeD]WWPELC[Aib]LI; linker 7-C via X7), for which the IC50 was 10 to 79.4 nM.

Turning to `CC[C@H](C)[C@@H]1NC(=O)[C@H](CC(C)C)NC(=O)C(C)(C)NC(=O)[C@@H](NC(=O)[C@H](CC(C)C)NC(=O)[C@H](CCC(=O)O)NC(=O)[C@@H]2CCCN2C(=O)[C@H](Cc2c[nH]c3ccccc23)NC(=O)[C@H](Cc2c[nH]c3ccccc23)NC(=O)[C@H](CC(=O)O)NC(C)=O)CSCc2cccc(c2)CSC[C@@H](C(=O)NCCCOCCOCCOCCCNC(=O)CCC(=O)N[C@@H](CCCCNC(=O)CN2CCN(CC(=O)O)CCN(CC(=O)O)CCN(CC(=O)O)CC2)C(N)=O)NC1=O` [GIP-131, Ac-Asp-Trp-Trp-Pro-Glu-Leu-[Cys(3MeBn)-Aib-Leu-Ile-Cys]-Ttds-Lys(DOTA)-NH2] (Ac-DWWPELC[Aib]LIC-X5; linker 7-11 via mXylylene), the IC50 is 10 to 79.4 nM.

For `CC[C@H](C)[C@@H]1NC(=O)[C@H](CC(C)C)NC(=O)C(C)(C)NC(=O)[C@@H](NC(=O)[C@H](CC(C)(C)C)NC(=O)[C@H](CCC(=O)O)NC(=O)[C@@H]2CCCN2C(=O)[C@H](Cc2c[nH]c3ccccc23)NC(=O)[C@H](Cc2c[nH]c3ccccc23)NC(=O)[C@H](CC(=O)O)NC(C)=O)CSCc2cccc(c2)CSC[C@@H](C(=O)NCCCOCCOCCOCCCNC(=O)CCC(=O)N[C@@H](CCCCNC(=O)CN2CCN(CC(=O)O)CCN(CC(=O)O)CCN(CC(=O)O)CC2)C(N)=O)NC1=O` [GIP-132, Ac-Asp-Trp-Trp-Pro-Glu-Npg-[Cys(3MeBn)-Aib-Leu-Ile-Cys]-Ttds-Lys(DOTA)-NH2] (Ac-DWWPE[tBuAla]C[Aib]LIC-X5; linker 7-11 via mXylylene), the IC50 is 10 to 79.4 nM.

Regarding `CC[C@H](C)[C@@H]1NC(=O)[C@H](CC(C)(C)C)NC(=O)C(C)(C)NC(=O)[C@@H](NC(=O)[C@H](CC(C)C)NC(=O)[C@H](CCC(=O)O)NC(=O)[C@@H]2CCCN2C(=O)[C@H](Cc2c[nH]c3ccccc23)NC(=O)[C@H](Cc2c[nH]c3ccccc23)NC(=O)[C@H](CC(=O)O)NC(C)=O)CSCc2cccc(c2)CSC[C@@H](C(=O)NCCCOCCOCCOCCCNC(=O)CCC(=O)N[C@@H](CCCCNC(=O)CN2CCN(CC(=O)O)CCN(CC(=O)O)CCN(CC(=O)O)CC2)C(N)=O)NC1=O` [GIP-133, Ac-Asp-Trp-Trp-Pro-Glu-Leu-[Cys(3MeBn)-Aib-Npg-Ile-Cys]-Ttds-Lys(DOTA)-NH2] (Ac-DWWPELC[Aib][tBuAla]IC-X5; linker 7-11 via mXylylene), the IC50 is 10 to 79.4 nM.
